Key:
Format in all cases: cell-based
[1] = system: caspase-3 and caspase-7 in L226 cells; test: Caspase 3/7 activation (Caspase-Glo 3/7) in L226 tumor cells; settings: Homo sapiens, R=RLU at 20 μM/RLU at 0 μM, 24 h, read-out: Caspase 3/7 activation R (RLU fold increase from untreated cells)
Protocol: (§1) Human breast tumor L226 cells were plated in a 96 well plate at 10000 cells/100 μL at 37° C. in 5% CO2. Serial dilutions of drugs (compounds 1, 3 or 4) ranging from 20 μM to 300 nM were added at day 0. Active caspase-3 and caspase-7 were measured in triplicate after 24 h treatment by incubating 50 μL of the Caspase-Glo 3/7 reagent for 60 min at 25° C. This reagent containing the proluminescent tetrapeptide sequence DEVD in a cell lysis buffer (Promega) (FIG. 7).
(§2) Caspase 3/7 activation in SUM149 and L226 tumor cells was measured.
(§3) The calculated values R correspond to Relative Luminescence Units (RLU) fold increase from untreated cells (R=RLU at 20 μM/RLU at 0 μM).

[2] = system: caspase-3 and caspase-7 in SUM149 cells; test: Caspase 3/7 activation (Caspase-Glo 3/7) in SUM149 tumor cells; settings: Homo sapiens, R=RLU at 20 μM/RLU at 0 μM, 24 h, read-out: Caspase 3/7 activation R (RLU fold increase from untreated cells)
Protocol: as §1, with “SUM149” for “L226”, “6).” for “7).”
as §2, §3

[3] = system: Human breast tumor L226 cells; test: Inhibition of tumor cell growth (alamar blue), L226; settings: 120 h, calculated on the basis of cell growth inhibition, day 5, alamar blue
Protocol: (§4) All biological experiments (Examples 2 to 9) have been performed with recommended cell line specific culture medium. For SUM149 and L226, culture medium is supplemented with 10% Fetal Calf Serum. For HME-1 and MCF-10A, culture medium is supplemented with 5% Horse Serum.
(§5) Human breast tumor L226 cells (Inflammatory Breast Cancer (IBC) of ERB-B2 subtype) were plated in a 96 well plate at 3000 cells/100 μL at 37° C. in 5% CO2. Serial dilutions of drugs (compounds 1, 3 or 4) ranging from 20 μM to 300 nM were added at day 0 and day 3. The number of viable cells was determined in triplicate at day 5 by incubating 10 μL of the alamar blue staining solution for 2 hours at 37° C. (FIG. 3).
IC50 values of compounds 1-14 for the inhibition of SUM149 and L226 tumor cells growth were measured (according to the experimental procedure of Examples 2 and 3): […]

[4] = system: caspase-3 and caspase-7 in HME-1 cells; test: Caspase 3/7 activation (Caspase-Glo 3/7) in HME-1 normal cells; settings: Homo sapiens, HME1, R=RLU at 20 μM/RLU at 0 μM, 24 h, read-out: Caspase 3/7 activation R (RLU fold increase from untreated cells)
Protocol: as §1, with “normal mammary epithelial HME-1” for “breast tumor L226”, “8).” for “7).”
as §3
(§6) Caspase 3/7 activation in MCF-10A and HME-1 normal cells was also measured.

[5] = system: Human normal mammary epithelial MCF-10A cells; test: Effect on growth of normal cells (alamar blue), MCF-10A; settings: calculated on the basis of cell growth inhibition
Protocol: as §4
as §5, with “normal mammary epithelial MCF-10A” for “breast tumor L226”, “cells” for “cells (Inflammatory Breast Cancer (IBC) of ERB-B2 subtype)”, “5).” for “3).”
(§7) IC50 values of compounds 1-14 for the inhibition of MCF-10A and HME-1 normal cells growth were also measured (according to the experimental procedure of Examples 4 and 5): […]

[6] = system: Human normal mammary epithelial HME-1 cells; test: Effect on growth of normal cells (alamar blue), HME-1; settings: HME1, calculated on the basis of cell growth inhibition
Protocol: as §4
as §5, with “normal mammary epithelial HME-1” for “breast tumor L226”, “cells” for “cells (Inflammatory Breast Cancer (IBC) of ERB-B2 subtype)”, “4).” for “3).”
as §7

[7] = system: Human breast tumor SUM149 cells; test: Inhibition of tumor cell growth (alamar blue), SUM149; settings: 120 h, calculated on the basis of cell growth inhibition, day 5, alamar blue, read-out: IC50 for the inhibition of SUM149 tumor cells growth
Protocol: as §4
as §5, with “SUM149” for “L226”, “basal” for “ERB-B2”, “Compounds” for “Serial dilutions of drugs (compounds”, “3, 4, 5, 6, 7, 8, 9, 10, 11, 12, 13, 14 at 10” for “3 or 4) ranging from 20”, “μM” for “μM to 300 nM”, “1).” for “3).”
as §5, with “SUM149” for “L226”, “cells” for “cells (Inflammatory Breast Cancer (IBC) of ERB-B2 subtype)”, “2).” for “3).”
IC50 values of compounds 1-14 for the inhibition of SUM149 and L226 tumor cells growth were measured (according to the experimental procedure of Examples 2 and 3):
Human breast tumor SUM149 cells were plated in a 96 well plate at 3000 cells/100 μL at 37° C. in 5% CO2 in recommended medium containing 10% FCS or in synthetic medium without FCS. Serial dilutions of drug (compound 4) ranging from 10 μM to 0.16 μM were added at day 0 and day 3. The number of viable cells was determined in triplicate at day 5 by incubating 10 μL of the alamar blue staining solution for 2 hours at 37° C. (FIG. 11). The […] in recommended medium containing 10% FCS was measured at 2 μM, while it was measured at 0.6 μM without FCS.

[8] = system: caspase-3 and caspase-7 in MCF-10A cells; test: Caspase 3/7 activation (Caspase-Glo 3/7) in MCF-10A normal cells; settings: Homo sapiens, R=RLU at 20 μM/RLU at 0 μM, 24 h, read-out: Caspase 3/7 activation R (RLU fold increase from untreated cells)
Protocol: as §1, with “normal mammary epithelial MCF-10A” for “breast tumor L226”, “9).” for “7).”
as §3, §6

[9] = system: Cancer stem cells (CSCs); test: Aldefluor assay of cancer stem cells (ALDH+ cells), FACS; settings: FIG. 12B
Protocol: Cancer stem cells (CSCs) are thought to contribute to tumor initiation, maintenance, resistance to therapy, and metastasis progression. Treatment with drugs enrich in resistant CSCs. In vitro, breast CSCs express high level of aldehyde dehydrogenase-1 (ALDH1), which can be detected by using a commercial assay (CSCs are “Aldefluor” positive). Briefly, cells were incubated in Aldefluor assay buffer containing ALDH substrate (BAAA (BODIPY®—aminoacetaldehyde), 1 μmol/L per 1×10^6 cells). Negative control was done in the presence of diethylaminobenzaldehyde (DEAB), a specific ALDH inhibitor. Cells were then incubated for 40 min at 37° C. Cells were analyzed with the LSRII flow cytometer (Becton-Dickinson). PI (Propidium Iodide) exclusion was used to gate viable cells.

Compound	fold induction at 20 µM [1]	fold induction at 20 µM [2]	IC50 [3] [µM]	fold induction at 20 µM [4]	IC50 [5] [µM]	IC50 [6] [µM]	IC50 [7] [µM]	fold induction at 20 µM [8]	aldefluor ratio (percent ALDH+ cells treated vs DMSO) [9]
CC1(C)SCCN(S(=O)(=O)c2ccccc2)[C@H]1C(=O)NO [Compound 1, (3S)—N-hydroxy-4-(benzenesulfonyl)-2,2-dimethyl-3-thiomorpholine carboxamide]	1	1	> 20	1	> 20	> 20	20	1	
CC1(C)SCCN(S(=O)(=O)c2ccc(CBr)cc2)[C@H]1C(=O)NO [Compound 5, (3S)—N-hydroxy-4-[(4-bromomethylphenyl)sulfonyl]-2,2-dimethyl-3-thiomorpholine carboxamide]	3.2	5.5	20	1.1	> 20	> 20	2.5	1	
CC1(C)SCCN(S(=O)(=O)c2ccc(C(F)(F)F)cc2)[C@H]1C(=O)NO [Compound 6, (3S)—N-hydroxy-4-[(4-trifluoromethylphenyl)sulfonyl]-2,2-dimethyl-3-thiomorpholine carboxamide]	2.8	5.9	5	0.9	> 20	> 20	2.5	1	
CC1(C)SCCN(S(=O)(=O)c2ccc(F)cc2)[C@H]1C(=O)NO [Compound 7, (3S)—N-hydroxy-4-[(4-fluorophenyl)sulfonyl]-2,2-dimethyl-3-thiomorpholine carboxamide]							20		
CC1(C)SCCN(S(=O)(=O)CC(c2ccccc2)c2ccccc2)[C@H]1C(=O)NO [Compound 9]							10		
CCCCCCCCCCCCc1ccc(S(=O)(=O)N2CCSC(C)(C)C2C(=O)NO)cc1 [Compound 10, (3S)—N-hydroxy-4-[(4-dodecyl)phenylsulfonyl]-2,2-di methyl-3-thiomorpholine carboxamide]	8.9	5.5	3.5	0.8	20	> 20	2.5	1.1	
Cc1cc(C)c(S(=O)(=O)N2CCSC(C)(C)[C@@H]2C(=O)NO)c(C)c1 [Compound 11, (3S)—N-hydroxy-4-[(2,4,6-trimethylphenyl)sulfonyl]-2,2-dimethyl-3-thiomorpholine carboxamide]	8.7	6.4	2.5		20	> 20	2.5		
CCCc1ccc(S(=O)(=O)N2CCSC(C)(C)[C@@H]2C(=O)NO)cc1 [Compound 13, (3S)—N-hydroxy-4-[(4-propylphenyl)sulfonyl]-2,2-dimethyl-3-thiomorpholine carboxamide]	5.8	5.4	2.5	1.2	> 20	> 20	2.5	1.1	
Cc1cc(C)cc(S(=O)(=O)N2CCSC(C)(C)[C@@H]2C(=O)NO)c1 [Compound 14, (3S)—N-hydroxy-4-[(3,5-dimethylphenyl)sulfonyl]-2,2-dimethyl-3-thiomorpholine carboxamide]				1.1			5	1.1	
COc1cccc2c1C(=O)c1c(O)c3c(c(O)c1C2=O)C[C@@](O)(C(=O)CO)C[C@@H]3O[C@H]1C[C@H](N)[C@H](O)[C@H](C)O1 [doxorubicin, reference compound]									increases it
